Measured values: patent US20080171766A1, “Novel Method” (SMITHKLINE BEECHAM CORPORATION, priority 2005, published 2008)
Converted amounts (≈) assume the structure as drawn.

What was measured:
[1] = test system: S. aureus Linezolid resistant; experiment: MIC by broth microdilution, linezolid resistant S. aureus; assay type: cell-based, Staphylococcus aureus; conditions: S. aureus (3 isolates) Linezolid resistant
Description: (§1) Whole-cell antimicrobial activity was determined by broth microdilution. Test compounds were dissolved in DMSO and diluted 1:10 in water to produce a 64 mcg/ml stock solution. Using a 96 well microtitre plate, a Microlab AT Plus 2 (Hamilton Co., Reno, Nev.) serially diluted 50 ul of the stock solution into an appropriate broth medium. Staphylococcal isolates were tested using cation adjusted Mueller Hinton broth. For S. pneumonaie testing, the Mueller Hinton broth was supplemented with 5% lysed horse blood and H. influenzae was tested with Haemophilus Test Medium. After the compounds were diluted, a 50 ul aliquot of the test isolate (˜1×10^6 cfu/ml) prepared in normal saline was added to each well of the microtitre plate. The final test concentrations ranged from 0.016-16 ug/mL. Inoculated plates were incubated at 35 °C in ambient air for 18 to 24 hours. The minimum inhibitory concentration (MIC) was determined as the lowest concentration of compound that inhibited visible growth.

[2] = test system: H. influenzae BLNAR (beta lactamase negative ampicillin resistant); experiment: MIC by broth microdilution, H. influenzae BLNAR; assay type: cell-based; conditions: H. influenzae (5 isolates) BLNAR; Compound A n = 4
Description: as §1

[3] = test system: S. aureus VISA (vancomycin intermediate Staphylococcus aureus); experiment: MIC by broth microdilution, VISA; assay type: cell-based
Description: as §1

[4] = test system: H. influenzae ClarR (clarithromycin resistant); experiment: MIC by broth microdilution, H. influenzae ClarR; assay type: cell-based; conditions: H. influenzae (5 isolates) ClarR; Compound A n = 3
Description: as §1

[5] = test system: S. aureus MRSA (methicillin resistant Staphylococcus aureus); experiment: MIC by broth microdilution, MRSA; assay type: cell-based; conditions: S. aureus MRSA (61 isolates); not all isolates tested against fusidic acid
Description: as §1

[6] = test system: S. aureus Macrolide^r (macrolide resistant); experiment: MIC by broth microdilution, macrolide resistant S. aureus; assay type: cell-based, Staphylococcus aureus; conditions: S. aureus Macrolide^r (69 isolates); not all isolates tested against fusidic acid
Description: as §1

[7] = test system: S. aureus Fusidic acid^r (fusidic acid resistant); experiment: MIC by broth microdilution, fusidic acid resistant S. aureus; assay type: cell-based, Staphylococcus aureus; conditions: S. aureus Fusidic acid^r (6 isolates)
Description: as §1

[8] = test system: S. aureus MRSA&Mup^r (methicillin resistant & mupirocin resistant Staphylococcus aureus); experiment: MIC by broth microdilution, MRSA&Mup^r; assay type: cell-based; conditions: S. aureus MRSA&Mup^r (14 isolates); not all isolates tested against fusidic acid
Description: as §1

[9] = test system: S. aureus Mupirocin^r (mupirocin resistant); experiment: MIC by broth microdilution, mupirocin resistant S. aureus; assay type: cell-based, Staphylococcus aureus; conditions: S. aureus Mupirocin^r (32 isolates); not all isolates tested against fusidic acid
Description: as §1

[10] = S. aureus (4 isolates) VISA (vanc. MIC 4), second part of table
[11] = S. aureus VISA (6 isolates), first part of table

SMILES	MIC Range [1]	MIC Range [2]	MIC Range [3, 10]	MIC Range [4]	MIC Range [5]	MIC Range [6]	MIC Range [7]	MIC Range [8]	MIC Range [3, 11]	MIC Range [9]
CC1(C)S[C@@H]2[C@H](NC(=O)[C@H](N)c3ccc(O)cc3)C(=O)N2[C@H]1C(=O)O [Amoxicillin]	>32 µg/mL	4 to 16 µg/mL	8 to 32 µg/mL	–	–	–	–	–	–	–
CC[C@H]1OC(=O)[C@H](C)[C@@H](O[C@H]2C[C@@](C)(OC)[C@@H](O)[C@H](C)O2)[C@H](C)[C@@H](O[C@@H]2O[C@H](C)C[C@H](N(C)C)[C@H]2O)[C@](C)(O)C[C@@H](C)CN(C)[C@H](C)[C@@H](O)[C@]1(C)O [Azithromycin]	0.5 µg/mL (≈ 0.668 µM)	1 to 2 µg/mL	–	–	–	–	–	–	–	–
CO/N=C(\C(=O)N[C@@H]1C(=O)N2C(C(=O)O)=C(COC(N)=O)CS[C@H]12)c1ccco1 [Cefuroxime]	>16 µg/mL	8 to 16 µg/mL	>16 µg/mL	0.5 to 1 µg/mL	–	–	–	–	–	–
C=C[C@]1(C)C[C@@H](OC(=O)CSC2CC3CCC(C2)N3C)[C@]2(C)C(C)CC[C@]3(CCC(=O)[C@H]32)[C@@H](C)[C@@H]1O (stereo partly drawn) [Compound A, mutilin 14-(exo-8-methyl-8azabicyclo[3.2.1]oct-3-ylsulfanyl)-acetate]	1 to 2 µg/mL	2 to 4 µg/mL	0.06 to 1 µg/mL	0.12 to 0.25 µg/mL	<0.016 to 0.5 µg/mL	0.03 to 0.5 µg/mL	<0.016 to 0.03 µg/mL	<0.016 to 0.12 µg/mL	<0.06 to 1 µg/mL	<0.016 to 0.5 µg/mL
CC(=O)O[C@H]1C[C@@]2(C)[C@@H](C[C@@H](O)[C@H]3[C@@]4(C)CC[C@@H](O)[C@@H](C)[C@@H]4CC[C@@]32C)/C1=C(\CCC=C(C)C)C(=O)O [Fusidic acid]	–	–	–	–	0.12 to 1 µg/mL	0.12 to 1 µg/mL	>16 µg/mL	0.12 to 0.5 µg/mL	–	–
C[C@H]1COc2c(N3CCN(C)CC3)c(F)cc3c(=O)c(C(=O)O)cn1c23 [Levofloxacin]	16 µg/mL (≈ 44.3 µM)	<0.016 µg/mL	8 to 64 µg/mL	<0.016 µg/mL	–	–	–	–	–	–
C/C(=C\C(=O)OCCCCCCCCC(=O)O)C[C@@H]1OC[C@H](C[C@@H]2O[C@H]2[C@@H](C)[C@H](C)O)[C@@H](O)[C@H]1O [Mupirocin]	–	–	–	–	–	–	–	–	<1 µg/mL	–
CC[C@H]1OC(=O)[C@H](C)C(=O)[C@H](C)[C@@H](O[C@@H]2O[C@H](C)C[C@H](N(C)C)[C@H]2O)[C@](C)(OC)C[C@@H](C)C(=O)[C@H](C)[C@H]2N(CCCCn3cnc(-c4cccnc4)c3)C(=O)O[C@]12C [Telithromycin]	0.03 to 0.06 µg/mL	1 µg/mL (≈ 1.23 µM)	–	–	–	–	–	–	–	–
